Source: patent US8895581B2, “1H-imidazo[4,5-c]quinolines” (Boehringer Ingelheim International GmbH, priority 2010, dated 2014)

Biological target: Recombinant human PDK1 enzyme (aa 52-556) (Homo sapiens (Human), UniProt O15530)
Experiment: PDK1 kinase assay
Format: biochemical
Conditions: 25 μM ATP solution with gamma-P33-ATP, PDKtide substrate, 90 min at RT
Protocol: The activity of the compounds according to the invention on the kinase PDK1 which inhibits the signal transduction pathway is determined in an in vitro kinase assay with recombinantly prepared protein:
Recombinant human PDK1 enzyme (aa 52-556) linked at its N-terminal end to His6 is isolated from baculovirus-infected insect cells. Purified enzyme may be obtained for example from the University of Dundee, Scotland. The following components are combined in a well of a 96-well round-based dish (Greiner bio-one, No. 650101): • 1. 15 μL of compound to be tested in varying concentrations (e.g. starting at 10 μM, and diluted in steps of 1:5) in APT buffer (50 mM Tris/Cl pH7.5; 0.05% β-mercaptoethanol; 10 mM Mg-acetate; 0.0166% Tween 20; 3.33% DMSO) • 2. 15 μL His6-PDK1 (aa 52-556) 3.33 ng/well) and PDKtide (KTFCGTPEYLAPEVRRE […]), synthesised by Pepceuticals Limited, Nottingham, United Kingdom; 25 μM final concentration); His6-PDK1 and PDKtide are together diluted accordingly in assay buffer (50 mM tris pH 7.5, 0.05% β-mercaptoethanol, 10 mM Mg-acetate); PDKtide is present in this mixture as an 83.3 μM solution. These 30 μl are routinely incubated for 30 min at RT. • 3. 20 μL ATP solution (25 μM ATP with 1.0 μCi/well gamma-P33-ATP). The final concentration of Tween 20 is 0.005%.
The reaction is started by adding the ATP solution and the mixture is incubated for 90 min at RT. At the start of the reaction the dishes are shaken gently. The reaction is stopped by the addition of 50 μL/well of 500 mM phosphoric acid (H3PO4) and incubated for about 20 min at RT. The precipitate is transferred by harvesting onto filter plates (96-well microtitre filter plate: UniFilter GF/C; Perkin Elmer; No. 6005174), then washed 6 times with 50 mM H3PO4 and dried at 60° C. Then the plate is stuck down with sealing tape, 25 μL/well of scintillation solution (Microscint 0; Perkin Elmer; No. 6013611) are added and the amount of P33 precipitated is measured using the Wallac Betacounter. The measured data are evaluated using Graphpad Prism software.

Sequence of Recombinant human PDK1 enzyme (aa 52-556) (O15530 52-556): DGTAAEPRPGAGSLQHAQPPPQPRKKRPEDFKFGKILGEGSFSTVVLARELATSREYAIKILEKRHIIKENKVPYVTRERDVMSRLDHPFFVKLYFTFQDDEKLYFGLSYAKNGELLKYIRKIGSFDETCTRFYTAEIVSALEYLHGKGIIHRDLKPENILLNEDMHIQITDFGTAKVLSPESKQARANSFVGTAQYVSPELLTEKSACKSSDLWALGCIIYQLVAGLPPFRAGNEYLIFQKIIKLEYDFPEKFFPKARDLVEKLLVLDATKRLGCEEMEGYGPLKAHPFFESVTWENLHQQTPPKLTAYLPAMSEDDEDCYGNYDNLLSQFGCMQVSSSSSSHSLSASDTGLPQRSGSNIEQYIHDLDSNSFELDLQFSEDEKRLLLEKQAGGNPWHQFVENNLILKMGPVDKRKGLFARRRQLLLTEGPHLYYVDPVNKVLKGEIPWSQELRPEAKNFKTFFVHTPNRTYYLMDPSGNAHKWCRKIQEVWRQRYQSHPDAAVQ

| IC50 [nM] | SMILES |
| --- | --- |
| 20 | CN1CC[C@@H](n2cnc3cnc4ccc(C#CCNC(=O)c5cccn(Cc6ccc(F)c(F)c6)c5=O)cc4c32)C1 [III-15] |
| 11 | CN1CC[C@H](n2cnc3cnc4ccc(C#CCNC(=O)c5cc(Cl)nn(Cc6ccc(F)c(F)c6)c5=O)cc4c32)C1 [III-16] |
| 787 | CN1CCC[C@@H](n2cnc3cnc4ccc(C#CCNC(=O)c5cc(Cl)nn(Cc6ccc(F)c(F)c6)c5=O)cc4c32)C1 [III-18] |
| 45 | Cc1c(C(=O)NCC#Cc2ccc3ncc4ncn(C5CCN(C(C)C)CC5)c4c3c2)c(=O)n(Cc2ccc(F)c(F)c2)n1C [III-19] |
| 32 | CCN1CCC(n2cnc3cnc4ccc(C#CCNC(=O)c5c(C)n(C)n(Cc6ccc(F)c(F)c6)c5=O)cc4c32)CC1 [III-20] |
| 5 | Cc1nc2cnc3ccc(C#CCNC(=O)c4c(C)n(C)n(Cc5ccc(F)c(F)c5)c4=O)cc3c2n1C1CCOCC1 [III-21] |
| 7 | O=C(NCC#Cc1ccc2ncc3ncn(C4CCOC4)c3c2c1)c1cccn([C@@H](CO)c2cccc(F)c2)c1=O (stereo partly drawn) [III-22] |
| 1 | Cc1nc2cnc3ccc(C#CCNC(=O)c4cccn([C@@H](C)c5ccc(F)c(F)c5)c4=O)cc3c2n1[C@H]1CC[C@H](N(C)C)CC1 [III-23] |
| 3 | Cc1nc2cnc3ccc(C#CCNC(=O)c4cccn([C@@H](CO)c5cccc(F)c5)c4=O)cc3c2n1[C@H]1CC[C@H](N(C)C)CC1 [III-24] |
| 4 | Cc1nc2cnc3ccc(C#CCNC(=O)c4cccn([C@@H](CO)c5cccc(F)c5)c4=O)cc3c2n1[C@H]1CC[C@@H](N(C)C)CC1 [III-25] |
| 1 | CN(C)[C@H]1CC[C@H](n2cnc3cnc4ccc(C#CCNC(=O)c5cccn([C@@H](CO)c6cccc(F)c6)c5=O)cc4c32)CC1 [III-26] |
| 3 | CN(C)[C@H]1CC[C@@H](n2cnc3cnc4ccc(C#CCNC(=O)c5cccn([C@@H](CO)c6cccc(F)c6)c5=O)cc4c32)CC1 [III-27] |
| 2 | Cc1nc2cnc3ccc(C#CCNC(=O)c4cncn(Cc5ccc(F)c(F)c5)c4=O)cc3c2n1C1CCCOC1 (stereo not drawn) [III-28] |
| 681 | NC[C@@H](c1ccccc1)n1cccc(C(=O)NCC#Cc2ccc3ncc4ncn(C5CCOC5)c4c3c2)c1=O (stereo partly drawn) [III-29] |
| 5 | Cn1cnc2cnc3ccc(C#CCNC(=O)c4cncn(Cc5ccc(F)c(F)c5)c4=O)cc3c21 [III-30] |
| 1 | CCn1cnc2cnc3ccc(C#CCNC(=O)c4cncn(Cc5ccc(F)c(F)c5)c4=O)cc3c21 [III-31] |
| 2 | CC(C)n1cnc2cnc3ccc(C#CCNC(=O)c4cncn(Cc5ccc(F)c(F)c5)c4=O)cc3c21 [III-32] |
| 2 | CCn1c(C)nc2cnc3ccc(C#CCNC(=O)c4cncn(Cc5ccc(F)c(F)c5)c4=O)cc3c21 [III-33] |
| 8 | Cc1nc2cnc3ccc(C#CCNC(=O)c4cncn(Cc5ccc(F)c(F)c5)c4=O)cc3c2n1C [III-34] |
| 5 | CCOc1cc(C(=O)NCC#Cc2ccc3ncc4ncn(C(C)C)c4c3c2)c(=O)n(Cc2ccc(F)c(F)c2)n1 [IV-1, 2-(3,4-difluorobenzyl)-6-ethoxy-3-oxo-2,3-dihydro-pyridazine-4-carboxylic acid [3-(1-isopropyl-1H-imidazo[4,5-c]quinolin-8-yl)-prop-2-ynyl]-amide] |
| 33 | CCOc1nc2cnc3ccc(C#CCNC(=O)c4cncn(Cc5ccc(F)c(F)c5)c4=O)cc3c2n1C [V-1, 1-(3,4-difluoro-benzyl)-6-oxo-1,6-dihydro-pyrimidine-5-carboxylic acid [3-(2-ethoxy-1-methyl-1H-imidazo[4,5-c]quinolin-8-yl)-prop-2-ynyl]-amide] |
| 72 | Cn1c(-c2ccccc2)nc2cnc3ccc(C#CCNC(=O)c4cncn(Cc5ccc(F)c(F)c5)c4=O)cc3c21 [V-2] |
| 8 | CCc1nc2cnc3ccc(C#CCNC(=O)c4cncn(Cc5ccc(F)c(F)c5)c4=O)cc3c2n1C [V-3] |
| 18 | COc1nc2cnc3ccc(C#CCNC(=O)c4cncn(Cc5ccc(F)c(F)c5)c4=O)cc3c2n1C [V-4] |
| 24 | COCCc1nc2cnc3ccc(C#CCNC(=O)c4cncn(Cc5ccc(F)c(F)c5)c4=O)cc3c2n1C [V-5, 1-(3,4-difluoro-benzyl)-6-oxo-1,6-dihydro-pyrimidine-5-carboxylic acid {3-[2-(2-methoxy-ethyl)-1-methyl-1H-imidazo[4,5-c]quinolin-8-yl]-prop-2-ynyl}-amide] |
| 19 | Cn1c(CF)nc2cnc3ccc(C#CCNC(=O)c4cncn(Cc5ccc(F)c(F)c5)c4=O)cc3c21 [V-6, 1-(3,4-difluoro-benzyl)-6-oxo-1,6-dihydro-pyrimidine-5-carboxylic acid [3-(2-fluoromethyl-1-methyl-1H-imidazo[4,5-c]quinolin-8-yl)-prop-2-ynyl]-amide] |
| 41 | COCc1nc2cnc3ccc(C#CCNC(=O)c4cncn(Cc5ccc(F)c(F)c5)c4=O)cc3c2n1C [V-7] |
| 79 | CN(C)Cc1nc2cnc3ccc(C#CCNC(=O)c4cncn(Cc5ccc(F)c(F)c5)c4=O)cc3c2n1C [V-8, 1-(3,4-difluoro-benzyl)-6-oxo-1,6-dihydro-pyrimidine-5-carboxylic acid [3-(2-dimethylaminomethyl-1-methyl-1H-imidazo[4,5-c]quinolin-8-yl)-prop-2-ynyl]-amide] |
| 6 | CN(C)CCCc1nc2cnc3ccc(C#CCNC(=O)c4cncn(Cc5ccc(F)c(F)c5)c4=O)cc3c2n1C [V-9] |
| 22 | CN(C)CCc1nc2cnc3ccc(C#CCNC(=O)c4cncn(Cc5ccc(F)c(F)c5)c4=O)cc3c2n1C [V-10] |
